For one experiment, the system named is Avena fatua (AVEFA). Description: Pre-emergence herbicidal activity. It is filed as in vivo. The note with it: pre-emergence application, 1000 g/Ha, evaluated after 13 days, scale 0-5. The essentials:
(§1)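 Seeds sown in standard soil, sprayed one day after sowing with active ingredient formulated in acetone/water (50:50) with 0.5% Tween 20. Glasshouse at 24/16 °C day/night, 14 h light, 65% humidity, watered twice daily; damage scored after 13 days on a 0–5 scale (5 = total damage).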
As for `CN(C(=O)OC(C)(C)C)c1sc(-c2cccnc2)nc1I` [Compound A31, tert-butyl N-[4-iodo-2-(3-pyridyl)thiazol-5-yl]-N-methyl-carbamate], the “Control of weed species, AVEFA (damage score)” value (“Control of weed species, AVEFA” below) amounted to 1.
The same measure, in the same setting: in the case of `Cc1nc(-c2cncc(F)c2)sc1N1CCOC1=O` [Compound A38, 3-[2-(5-fluoro-3-pyridyl)-4-methyl-thiazol-5-yl]oxazolidin-2-one] it was 1; in that of `COC(=O)N(C)c1sc(-c2cccnc2)nc1C` [Compound A18], 2.
On to `Cc1nc(-c2cncc(S(C)(=O)=O)c2)sc1N(C)C(=O)OC(C)(C)C` [Compound A9], for which the “Control of weed species, AVEFA” value is given as 0.
For the compound `Cc1nc(-c2cncc(C(F)(F)F)c2)sc1N(C)C(=O)OC(C)(C)C` [Compound A10], the “Control of weed species, AVEFA” value came to 1.

Another experiment concerns Oryza sativa (ORYSA). Kind of experiment: Pre-emergence herbicidal activity. In kind it is in vivo. To be noted: pre-emergence application, 1000 g/Ha, evaluated after 13 days, scale 0-5. The essentials: as §1
In the case of `CN(C(=O)OC(C)(C)C)c1sc(-c2cccnc2)nc1I` [Compound A31, tert-butyl N-[4-iodo-2-(3-pyridyl)thiazol-5-yl]-N-methyl-carbamate], the “Control of weed species, ORYSA (damage score)” value (“Control of weed species, ORYSA” below) worked out at 1.
Still for that read-out and setting: the value for `Cc1nc(-c2cncc(F)c2)sc1N1CCOC1=O` [Compound A38, 3-[2-(5-fluoro-3-pyridyl)-4-methyl-thiazol-5-yl]oxazolidin-2-one] was 3.
Same read-out and setting: in the case of `COC(=O)N(C)c1sc(-c2cccnc2)nc1C` [Compound A18] it was 0.
Same read-out and setting: in the case of `Cc1nc(-c2cncc(S(C)(=O)=O)c2)sc1N(C)C(=O)OC(C)(C)C` [Compound A9] it was 0.
Turning to `Cc1nc(-c2cncc(C(F)(F)F)c2)sc1N(C)C(=O)OC(C)(C)C` [Compound A10], the “Control of weed species, ORYSA” value is 1.

A further experiment concerns Alopecurus myosuroides (ALOMY). Kind of experiment: Pre-emergence herbicidal activity. It is filed as in vivo. To be noted: pre-emergence application, 1000 g/Ha, evaluated after 13 days, scale 0-5. An outline of the steps:
as §1
On to `CN(C(=O)OC(C)(C)C)c1sc(-c2cccnc2)nc1I` [Compound A31, tert-butyl N-[4-iodo-2-(3-pyridyl)thiazol-5-yl]-N-methyl-carbamate], for which the “Control of weed species, ALOMY (damage score)” value (“Control of weed species, ALOMY” below) is on record as 1.
On the same count and under the same terms, the value for `Cc1nc(-c2cncc(F)c2)sc1N1CCOC1=O` [Compound A38, 3-[2-(5-fluoro-3-pyridyl)-4-methyl-thiazol-5-yl]oxazolidin-2-one] was 1; that for `COC(=O)N(C)c1sc(-c2cccnc2)nc1C` [Compound A18] was 1; that for `Cc1nc(-c2cncc(S(C)(=O)=O)c2)sc1N(C)C(=O)OC(C)(C)C` [Compound A9] was 0.
For `Cc1nc(-c2cncc(C(F)(F)F)c2)sc1N(C)C(=O)OC(C)(C)C` [Compound A10], the “Control of weed species, ALOMY” value was 0.

The next experiment concerns Echinochloa crus-galli (ECHCG). Description: Pre-emergence herbicidal activity. It is filed as in vivo. The note with it: pre-emergence application, 1000 g/Ha, evaluated after 13 days, scale 0-5; Table 5. The essentials:
as §1
For `CN(C(=O)OC(C)(C)C)c1sc(-c2cccnc2)nc1I` [Compound A31, tert-butyl N-[4-iodo-2-(3-pyridyl)thiazol-5-yl]-N-methyl-carbamate], the “Control of weed species, ECHCG (damage score)” value (“Control of weed species, ECHCG” below) was 3.
Regarding `Cc1nc(-c2cncc(F)c2)sc1N1CCOC1=O` [Compound A38, 3-[2-(5-fluoro-3-pyridyl)-4-methyl-thiazol-5-yl]oxazolidin-2-one], the “Control of weed species, ECHCG” value was 5.
On the same count and under the same terms, in the case of `COC(=O)N(C)c1sc(-c2cccnc2)nc1C` [Compound A18] it was 5; in that of `Cc1nc(-c2cncc(S(C)(=O)=O)c2)sc1N(C)C(=O)OC(C)(C)C` [Compound A9], 0; in that of `Cc1nc(-c2cncc(C(F)(F)F)c2)sc1N(C)C(=O)OC(C)(C)C` [Compound A10], 1.

The subject of another experiment is Triticum aestivium (TRZAW). Description: Pre-emergence herbicidal activity. It is filed as in vivo. To be noted: pre-emergence application, 1000 g/Ha, evaluated after 13 days, scale 0-5. The essentials: as §1
In the case of `CN(C(=O)OC(C)(C)C)c1sc(-c2cccnc2)nc1I` [Compound A31, tert-butyl N-[4-iodo-2-(3-pyridyl)thiazol-5-yl]-N-methyl-carbamate], the “Control of weed species, TRZAW (damage score)” value (“Control of weed species, TRZAW” below) is on record as 1.
For the compound `Cc1nc(-c2cncc(F)c2)sc1N1CCOC1=O` [Compound A38, 3-[2-(5-fluoro-3-pyridyl)-4-methyl-thiazol-5-yl]oxazolidin-2-one], the “Control of weed species, TRZAW” value is listed as 0.
On the same count and under the same terms, the value for `COC(=O)N(C)c1sc(-c2cccnc2)nc1C` [Compound A18] was 1; that for `Cc1nc(-c2cncc(S(C)(=O)=O)c2)sc1N(C)C(=O)OC(C)(C)C` [Compound A9] was 0; that for `Cc1nc(-c2cncc(C(F)(F)F)c2)sc1N(C)C(=O)OC(C)(C)C` [Compound A10] was 1.

The subject of the next experiment is Lolium perenne (LOLPE). Kind of experiment: Pre-emergence herbicidal activity. It is filed as in vivo. The note with it: pre-emergence application, 1000 g/Ha, evaluated after 13 days, scale 0-5; Table 5. The essentials: as §1
Regarding `CN(C(=O)OC(C)(C)C)c1sc(-c2cccnc2)nc1I` [Compound A31, tert-butyl N-[4-iodo-2-(3-pyridyl)thiazol-5-yl]-N-methyl-carbamate], the “Control of weed species, LOLPE (damage score)” value (“Control of weed species, LOLPE” below) turned out to be 2.
On the same count and under the same terms, in the case of `Cc1nc(-c2cncc(F)c2)sc1N1CCOC1=O` [Compound A38, 3-[2-(5-fluoro-3-pyridyl)-4-methyl-thiazol-5-yl]oxazolidin-2-one] it was 2; in that of `COC(=O)N(C)c1sc(-c2cccnc2)nc1C` [Compound A18], 2.
On the same count and under the same terms, in the case of `Cc1nc(-c2cncc(S(C)(=O)=O)c2)sc1N(C)C(=O)OC(C)(C)C` [Compound A9] it was 0; in that of `Cc1nc(-c2cncc(C(F)(F)F)c2)sc1N(C)C(=O)OC(C)(C)C` [Compound A10], 1.

Another experiment relates to Avena fatua (AVEFA). Kind of experiment: Post-emergence herbicidal activity. The note with it: post-emergence application, 1000 g/Ha, evaluated after 13 days, scale 0-5. It is filed as in vivo. The essentials: (§2)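 Young plants, 8 days old, receive a foliar spray of compound in 50:50 acetone/water containing 0.5% Tween 20. Growth continues in a glasshouse with twice-daily watering, and injury is rated 13 days later from 0 to 5.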
With `CN(C(=O)OC(C)(C)C)c1sc(-c2cccnc2)nc1I` [Compound A31, tert-butyl N-[4-iodo-2-(3-pyridyl)thiazol-5-yl]-N-methyl-carbamate], the “Control of weed species, AVEFA” value came to 5.
Turning to `Cc1nc(-c2cncc(F)c2)sc1N1CCOC1=O` [Compound A38, 3-[2-(5-fluoro-3-pyridyl)-4-methyl-thiazol-5-yl]oxazolidin-2-one], the “Control of weed species, AVEFA” value was 4.
For the compound `COC(=O)N(C)c1sc(-c2cccnc2)nc1C` [Compound A18], the “Control of weed species, AVEFA” value was determined as 3.
On to `Cc1nc(-c2cncc(S(C)(=O)=O)c2)sc1N(C)C(=O)OC(C)(C)C` [Compound A9], for which the “Control of weed species, AVEFA” value turned out to be 2.
On the same count and under the same terms, the value for `Cc1nc(-c2cncc(C(F)(F)F)c2)sc1N(C)C(=O)OC(C)(C)C` [Compound A10] was 2.

The test system of a further experiment is Oryza sativa (ORYSA). Description: Post-emergence herbicidal activity. In kind it is in vivo. The note with it: post-emergence application, 1000 g/Ha, evaluated after 13 days, scale 0-5. The essentials:
as §2
For `CN(C(=O)OC(C)(C)C)c1sc(-c2cccnc2)nc1I` [Compound A31, tert-butyl N-[4-iodo-2-(3-pyridyl)thiazol-5-yl]-N-methyl-carbamate], the “Control of weed species, ORYSA” value turned out to be 1.
For the compound `Cc1nc(-c2cncc(F)c2)sc1N1CCOC1=O` [Compound A38, 3-[2-(5-fluoro-3-pyridyl)-4-methyl-thiazol-5-yl]oxazolidin-2-one], the “Control of weed species, ORYSA” value came to 0.
On the same count and under the same terms, in the case of `COC(=O)N(C)c1sc(-c2cccnc2)nc1C` [Compound A18] it was 0; in that of `Cc1nc(-c2cncc(S(C)(=O)=O)c2)sc1N(C)C(=O)OC(C)(C)C` [Compound A9], 1.
Turning to `Cc1nc(-c2cncc(C(F)(F)F)c2)sc1N(C)C(=O)OC(C)(C)C` [Compound A10], the “Control of weed species, ORYSA” value is 1.

The test system of the next experiment is Alopecurus myosuroides (ALOMY). Description: Post-emergence herbicidal activity. It is filed as in vivo. The note with it: post-emergence application, 1000 g/Ha, evaluated after 13 days, scale 0-5. The essentials: as §2
Take `CN(C(=O)OC(C)(C)C)c1sc(-c2cccnc2)nc1I` [Compound A31, tert-butyl N-[4-iodo-2-(3-pyridyl)thiazol-5-yl]-N-methyl-carbamate]: the “Control of weed species, ALOMY” value is 1.
Consider `Cc1nc(-c2cncc(F)c2)sc1N1CCOC1=O` [Compound A38, 3-[2-(5-fluoro-3-pyridyl)-4-methyl-thiazol-5-yl]oxazolidin-2-one], for which the “Control of weed species, ALOMY” value is given as 1.
Take `COC(=O)N(C)c1sc(-c2cccnc2)nc1C` [Compound A18]: the “Control of weed species, ALOMY” value is 1.
Still for that read-out and setting: in the case of `Cc1nc(-c2cncc(S(C)(=O)=O)c2)sc1N(C)C(=O)OC(C)(C)C` [Compound A9] it was 1.
Same read-out and setting: in the case of `Cc1nc(-c2cncc(C(F)(F)F)c2)sc1N(C)C(=O)OC(C)(C)C` [Compound A10] it was 0.

For another experiment, the system named is Echinochloa crus-galli (ECHCG). Kind of experiment: Post-emergence herbicidal activity. It is filed as in vivo. The note with it: post-emergence application, 1000 g/Ha, evaluated after 13 days, scale 0-5; Table 7. An outline of the steps:
as §2
`CN(C(=O)OC(C)(C)C)c1sc(-c2cccnc2)nc1I` [Compound A31, tert-butyl N-[4-iodo-2-(3-pyridyl)thiazol-5-yl]-N-methyl-carbamate]: the “Control of weed species, ECHCG” value was 4.
`Cc1nc(-c2cncc(F)c2)sc1N1CCOC1=O` [Compound A38, 3-[2-(5-fluoro-3-pyridyl)-4-methyl-thiazol-5-yl]oxazolidin-2-one]: the “Control of weed species, ECHCG” value came out at 5.
Same read-out and setting: in the case of `COC(=O)N(C)c1sc(-c2cccnc2)nc1C` [Compound A18] it was 5; in that of `Cc1nc(-c2cncc(S(C)(=O)=O)c2)sc1N(C)C(=O)OC(C)(C)C` [Compound A9], 2.
Same read-out and setting: the value for `Cc1nc(-c2cncc(C(F)(F)F)c2)sc1N(C)C(=O)OC(C)(C)C` [Compound A10] was 4.

A further experiment concerns Triticum aestivium (TRZAW). Description: Post-emergence herbicidal activity. It is filed as in vivo. To be noted: post-emergence application, 1000 g/Ha, evaluated after 13 days, scale 0-5. The essentials: as §2
For the compound `CN(C(=O)OC(C)(C)C)c1sc(-c2cccnc2)nc1I` [Compound A31, tert-butyl N-[4-iodo-2-(3-pyridyl)thiazol-5-yl]-N-methyl-carbamate], the “Control of weed species, TRZAW” value was 1.
In the case of `Cc1nc(-c2cncc(F)c2)sc1N1CCOC1=O` [Compound A38, 3-[2-(5-fluoro-3-pyridyl)-4-methyl-thiazol-5-yl]oxazolidin-2-one], the “Control of weed species, TRZAW” value is listed as 1.
Still for that read-out and setting: in the case of `COC(=O)N(C)c1sc(-c2cccnc2)nc1C` [Compound A18] it was 1.
Turning to `Cc1nc(-c2cncc(S(C)(=O)=O)c2)sc1N(C)C(=O)OC(C)(C)C` [Compound A9], the “Control of weed species, TRZAW” value is 2.
On the same count and under the same terms, the value for `Cc1nc(-c2cncc(C(F)(F)F)c2)sc1N(C)C(=O)OC(C)(C)C` [Compound A10] was 1.

In another experiment the test system is Lolium perenne (LOLPE). Kind of experiment: Post-emergence herbicidal activity. In kind it is in vivo. To be noted: post-emergence application, 1000 g/Ha, evaluated after 13 days, scale 0-5; Table 7. The essentials:
as §2
In the case of `CN(C(=O)OC(C)(C)C)c1sc(-c2cccnc2)nc1I` [Compound A31, tert-butyl N-[4-iodo-2-(3-pyridyl)thiazol-5-yl]-N-methyl-carbamate], the “Control of weed species, LOLPE” value turned out to be 3.
On the same count and under the same terms, the value for `Cc1nc(-c2cncc(F)c2)sc1N1CCOC1=O` [Compound A38, 3-[2-(5-fluoro-3-pyridyl)-4-methyl-thiazol-5-yl]oxazolidin-2-one] was 3; that for `COC(=O)N(C)c1sc(-c2cccnc2)nc1C` [Compound A18] was 2; that for `Cc1nc(-c2cncc(S(C)(=O)=O)c2)sc1N(C)C(=O)OC(C)(C)C` [Compound A9] was 1.
`Cc1nc(-c2cncc(C(F)(F)F)c2)sc1N(C)C(=O)OC(C)(C)C` [Compound A10]: the “Control of weed species, LOLPE” value is given as 0.

The values above are taken from patent US11470846B2, “Herbicidal pyridino-/pyrimidino-thiazoles” (SYNGENTA PARTICIPATIONS AG, priority 2014, dated 2022).
